Results published in US11450409B2, “Determination of NFkB pathway activity using unique combination of target genes” (InnoSIGN B.V., priority 2015, dated 2022).

Tests used:
[1] = system: NFkB cellular signaling pathway; test: NFkB pathway activity prediction, linear model (evidence curated list), NHBE samples from E-MTAB-1312 stimulated with TNFα; assay type: cell-based, human; conditions: NHBE cells
From the text: Further to the exemplary Bayesian network model described above, an exemplary linear model was used to model the transcriptional program of the NFkB cellular signaling pathway in a simple manner. The structure of the model corresponded to the one shown in FIG. 3 of the published international patent application WO 2014/102668 A2 (“Assessment of cellular signaling pathway activity using linear combination(s) of target gene expressions”). More specifically, the exemplary linear model consisted of a TF node, a layer of target gene expression and a layer of mRNA expression levels and made use of continuous expression data, all target genes from the evidence curated list of target genes (see Table 3) with all probesets included and without the use of a pseudocount.
In the diagram, the vertical axis indicates the activity score, wherein positive values correspond to an active NFkB cellular signaling pathway and negative values correspond to a passive NFkB cellular signaling pathway. NHBE cell lines were unstimulated or stimulated with different TNFα concentrations for different timings. All unstimulated healthy cells (groups 1 to 4) are correctly predicted to have a passive NFkB cellular signaling pathway. […]

[2] = system: NFkB cellular signaling pathway; test: NFkB pathway activity prediction, Bayesian network model (evidence curated list, 19, 13 and 7 target genes shortlists), NHBE samples from E-MTAB-1312 stimulated with TNFα; assay type: cell-based, human; conditions: NHBE cells
From the text: (§1) Herein, an exemplary Bayesian network model as shown in FIG. 2 was first used to model the transcriptional program of the NFkB cellular signaling pathway in a simple manner. The model consists of three types of nodes: (a) a transcription factor (TF) element (with states “absent” and “present”) in a first layer 1; (b) target genes TG1, TG2, TGn (with states “down” and “up”) in a second layer 2, and; (c) measurement nodes linked to the expression levels of the target genes in a third layer 3. These can be microarray probesets PS1,1, PS1,2, PS1,3, PS2,1, PSn,1, PSn,m (with states “low” and “high”), as preferably used herein, but could also be other gene expression measurements such as RNAseq or RT-qPCR.
(§2) A suitable implementation of the mathematical model, herein, the exemplary Bayesian network model, is based on microarray data. The model describes (i) how the expression levels of the target genes depend on the activation of the TF element, and (ii) how probeset intensities, in turn, depend on the expression levels of the respective target genes. For the latter, probeset intensities may be taken from fRMA pre-processed Affymetrix HG-U133Plus2.0 microarrays, which are widely available from the Gene Expression Omnibus (GEO, www.ncbi.nlm.nih.gov/geo) and ArrayExpress (www.ebi.ac.uk/arrayexpress).
Once the exemplary Bayesian network model is built and calibrated (see below), the model can be used on microarray data of a new sample by entering the probeset measurements as observations in the third layer 3, and inferring backwards in the model what the probability must have been for the TF element to be “present”. Here, “present” is considered to be the phenomenon that the TF element is bound to the DNA and is controlling transcription of the cellular signaling pathway's target genes, and “absent” the case that the TF element is not controlling transcription. […]

[3] = system: NFkB cellular signaling pathway; test: NFkB pathway activity prediction, Bayesian network model (broad literature list), NHBE samples from E-MTAB-1312 stimulated with TNFα; assay type: cell-based, human; conditions: NHBE cells
From the text: The list of target genes of the NFkB cellular signaling pathway constructed based on literature evidence following the procedure as described herein (“evidence curated list of target genes”, see Table 3) is compared here with a “broad literature list” of putative target genes of the NFkB cellular signaling pathway constructed not following above mentioned procedure. The alternative list is a compilation of genes attributed to responding to activity of the NFkB cellular signaling pathway provided within Thomson-Reuters's Metacore (last accessed Sep. 6, 2013). This database was queried for genes that are transcriptionally regulated directly downstream of the family of NFkB proteins, i.e., NFKB1 or p50/p105, NFKB2 or p52/p100, RELA or p65, REL, and RELB. […] A further selection was made based on the number of publication references supporting the attributed transcriptional regulation of the respective gene by the NFkB family. Genes that had ten or more references were selected for the broad literature list. In other words, no manual curation of the references and no calculation of an evidence score based on the experimental evidence was performed. […] The expression of the genes was measured by 56 probesets on the Affymetrix HG-U133Plus2.0 microarray platform which were selected using the Bioconductor plugin of R and one manually added probeset for DEFB4A, see Table 7. […]

[4] = system: NFkB cellular signaling pathway; conditions: reported in literature (Schmelzer and Döring 2010), human THP-1 monocytes; cited from earlier work
[5] = system: NFkB cellular signaling pathway; test: NFkB pathway activity prediction, Bayesian network model (evidence curated list), THP-1 monocytic cells; assay type: cell-based, human; conditions: THP-1 cells treated with CoQ10 and stimulated with LPS (group 3)
From the text: as §1
as §2, with “(www.ebi.ac.uk/arrayexpress). […]” for “(www.ebi.ac.uk/arrayexpress).”

[6] = 0.5 h stimulation, all TNFα concentrations (groups 5, 9, 13)

Molecule | predicted NFkB cellular signaling pathway activity score [1, 6] | predicted NFkB cellular signaling pathway activity score ([1]; stimulation times of 2 to 24 hours) | predicted NFkB cellular signaling pathway activity ([2]; 2 and 4 hour stimulation, all concentrations tested) | predicted NFkB cellular signaling pathway activity ([2]; 0.5 h stimulation, low/medium/high TNFα (groups 5, 9, 13)) | predicted NFkB cellular signaling pathway activity ([2]; 24 hours stimulation (groups 8, 12, 16)) | predicted NFkB cellular signaling pathway activity [3, 6] | predicted NFkB cellular signaling pathway activity ([3]; stimulation times of 2-24 hours) | effect on NFkB cellular signaling pathway activity [4] | predicted NFkB cellular signaling pathway activity [5]
TNFα | too short for the NFkB cellular signaling pathway to become active | resulted in an active NFkB cellular signaling pathway | full-blown NFkB cellular signaling pathway activity | too short for the NFkB cellular signaling pathway to become active | appears to lower the NFkB cellular signaling pathway activity | too short for the NFkB cellular signaling pathway to become active | resulted in an active NFkB cellular signaling pathway |  | 
COC1=C(OC)C(=O)C(C/C=C(\C)CC/C=C(\C)CC/C=C(\C)CC/C=C(\C)CC/C=C(\C)CC/C=C(\C)CC/C=C(\C)CC/C=C(\C)CC/C=C(\C)CCC=C(C)C)=C(C)C1=O [CoQ10, Coenzyme Q10] |  |  |  |  |  |  |  | limited | high predicted NFkB cellular signaling pathway activities
